{"source": "patent US12252492B2", "about": "“Substituted fused pyrrolo-diazepinones and uses thereof” (Northwestern University, priority 2018, dated 2025)", "type_in_all_cases": "cell-based, human", "key": {"[1]": {"system": "K-562", "assay": "NCI60 one-dose screen, K-562", "settings": "K-562 (Leukemia); NCI 60 one-dose, 10^-5 M", "experimental": "(§1) Anti-cancer activity screening of all compounds was performed by the NCI Developmental Therapeutics Program (DTP) through their NCI60 screening initiative. Assay details can be found at the website dtp.cancer.gov/discovery_development/nci-60/methodology.htm. Information from this website is reproduced here for convenience.\n(§2) As of early 2007 all compounds submitted to the NCI 60 Cell screen are tested initially at a single high dose (10^-5 M) in the full NCI 60 cell panel. Only compounds which satisfy pre-determined threshold inhibition criteria in a minimum number of cell lines will progress to the full 5-dose assay. The threshold inhibition criteria for progression to the 5-dose screen was selected to efficiently capture compounds with anti-proliferative activity based on careful analysis of historical DTP screening data. The threshold criteria may be updated as additional data becomes available.\n(§3) The One-dose data will be reported as a mean graph of the percent growth of treated cells and will be similar in appearance to mean graphs from the 5-dose assay. […]\n(§4) Following drug addition, the plates are incubated for an additional 48 h at 37° C., 5% CO2, 95% air, and 100% relative humidity. […] Bound stain is subsequently solubilized with 10 mM trizma base, and the absorbance is read on an automated plate reader at a wavelength of 515 nm. […]"}, "[2]": {"system": "UACC-62", "assay": "NCI60 one-dose screen, UACC-62", "settings": "UACC-62 (Melanoma); NCI 60 one-dose, 10^-5 M", "experimental": "as §1, §2, §3, §4"}, "[3]": {"system": "EKVX", "assay": "NCI60 one-dose screen, EKVX", "settings": "EKVX (Non-Small Cell Lung Cancer); NCI 60 one-dose, 10^-5 M", "experimental": "as §1, §2, §3, §4"}, "[4]": {"system": "NCI/ADR-RES", "assay": "NCI60 one-dose screen, NCI/ADR-RES", "settings": "NCI/ADR-RES (Ovarian Cancer); NCI 60 one-dose, 10^-5 M", "experimental": "as §1, §2, §3, §4"}, "[5]": {"system": "HOP-62", "assay": "NCI60 one-dose screen, HOP-62", "settings": "HOP-62 (Non-Small Cell Lung Cancer); NCI 60 one-dose, 10^-5 M", "experimental": "as §1, §2, §3, §4"}, "[6]": {"system": "RPMI-8226", "assay": "NCI60 one-dose screen, RPMI-8226", "settings": "RPMI-8226 (Leukemia); NCI 60 one-dose, 10^-5 M", "experimental": "as §1, §2, §3, §4"}, "[7]": {"system": "SR", "assay": "NCI60 one-dose screen, SR", "settings": "SR (Leukemia); NCI 60 one-dose, 10^-5 M", "experimental": "as §1, §2, §3, §4"}, "[8]": {"system": "SNB-19", "assay": "NCI60 one-dose screen, SNB-19", "settings": "SNB-19 (CNS Cancer); NCI 60 one-dose, 10^-5 M", "experimental": "as §1, §2, §3, §4"}, "[9]": {"system": "NCI-H226", "assay": "NCI60 one-dose screen, NCI-H226", "settings": "NCI-H226 (Non-Small Cell Lung Cancer); NCI 60 one-dose, 10^-5 M", "experimental": "as §1, §2, §3, §4"}, "[10]": {"system": "TK-10", "assay": "NCI60 one-dose screen, TK-10", "settings": "TK-10 (Renal Cancer); NCI 60 one-dose, 10^-5 M", "experimental": "as §1, §2, §3, §4"}, "[11]": {"system": "SK-MEL-28", "assay": "NCI60 one-dose screen, SK-MEL-28", "settings": "SK-MEL-28 (Melanoma); NCI 60 one-dose, 10^-5 M", "experimental": "as §1, §2, §3, §4"}, "[12]": {"system": "SW-620", "assay": "NCI60 one-dose screen, SW-620", "settings": "SW-620 (Colon Cancer); NCI 60 one-dose, 10^-5 M", "experimental": "as §1, §2, §3, §4"}, "[13]": {"system": "UO-31", "assay": "NCI60 one-dose screen, UO-31", "settings": "UO-31 (Renal Cancer); NCI 60 one-dose, 10^-5 M", "experimental": "as §1, §2, §3, §4"}, "[14]": {"system": "IGROV1", "assay": "NCI60 one-dose screen, IGROV1", "settings": "IGROV1 (Ovarian Cancer); NCI 60 one-dose, 10^-5 M", "experimental": "as §1, §2, §3, §4"}, "[15]": {"system": "SK-MEL-5", "assay": "NCI60 one-dose screen, SK-MEL-5", "settings": "SK-MEL-5 (Melanoma); NCI 60 one-dose, 10^-5 M", "experimental": "as §1, §2, §3, §4"}, "[16]": {"system": "T-47D", "assay": "NCI60 one-dose screen, T-47D", "settings": "T-47D (Breast Cancer); NCI 60 one-dose, 10^-5 M", "experimental": "as §1, §2, §3, §4"}, "[17]": {"system": "SF-539", "assay": "NCI60 one-dose screen, SF-539", "settings": "SF-539 (CNS Cancer); NCI 60 one-dose, 10^-5 M", "experimental": "as §1, §2, §3, §4"}, "[18]": {"system": "NCI-H522", "assay": "NCI60 one-dose screen, NCI-H522", "settings": "NCI-H522 (Non-Small Cell Lung Cancer); NCI 60 one-dose, 10^-5 M", "experimental": "as §1, §2, §3, §4"}}, "data": [{"smiles": "CC(=O)N1c2ccccc2NC2=C(C(=O)N(C)C2(C)C)C1c1ccccc1", "note": "(stereo not drawn) [NUCC-60872]", "values": [{"measurement": "Growth Percent", "setting": "[1]", "value": 16.57, "unit": "%"}, {"measurement": "Growth Percent", "setting": "[2]", "value": 32.33, "unit": "%"}, {"measurement": "Growth Percent", "setting": "[3]", "value": 61.53, "unit": "%"}, {"measurement": "Growth Percent", "setting": "[4]", "value": 101.74, "unit": "%"}, {"measurement": "Growth Percent", "setting": "[5]", "value": 61.59, "unit": "%"}, {"measurement": "Growth Percent", "setting": "[6]", "value": 12.61, "unit": "%"}, {"measurement": "Growth Percent", "setting": "[7]", "value": 16.70, "unit": "%"}, {"measurement": "Growth Percent", "setting": "[8]", "value": 39.87, "unit": "%"}, {"measurement": "Growth Percent", "setting": "[9]", "value": 91.06, "unit": "%"}, {"measurement": "Growth Percent", "setting": "[10]", "value": 87.08, "unit": "%"}, {"measurement": "Growth Percent", "setting": "[11]", "value": 56.02, "unit": "%"}, {"measurement": "Growth Percent", "setting": "[12]", "value": 24.24, "unit": "%"}, {"measurement": "Growth Percent", "setting": "[13]", "value": 81.99, "unit": "%"}, {"measurement": "Growth Percent", "setting": "[14]", "value": 39.64, "unit": "%"}, {"measurement": "Growth Percent", "setting": "[15]", "value": 27.50, "unit": "%"}, {"measurement": "Growth Percent", "setting": "[16]", "value": 28.72, "unit": "%"}, {"measurement": "Growth Percent", "setting": "[17]", "value": 20.14, "unit": "%"}, {"measurement": "Growth Percent", "setting": "[18]", "value": 18.58, "unit": "%"}]}, {"smiles": "CC(=O)N1c2ccccc2NC2=C(C(=O)N(Cc3ccccc3)C2(C)C)C1c1ccco1", "note": "(stereo not drawn) [NUCC-608455]", "values": [{"measurement": "Growth Percent", "setting": "[1]", "value": 12.60, "unit": "%"}, {"measurement": "Growth Percent", "setting": "[2]", "value": 21.25, "unit": "%"}, {"measurement": "Growth Percent", "setting": "[3]", "value": 35.37, "unit": "%"}, {"measurement": "Growth Percent", "setting": "[4]", "value": 82.92, "unit": "%"}, {"measurement": "Growth Percent", "setting": "[5]", "value": 33.09, "unit": "%"}, {"measurement": "Growth Percent", "setting": "[6]", "value": 23.43, "unit": "%"}, {"measurement": "Growth Percent", "setting": "[7]", "value": 23.29, "unit": "%"}, {"measurement": "Growth Percent", "setting": "[8]", "value": 23.61, "unit": "%"}, {"measurement": "Growth Percent", "setting": "[9]", "value": 65.66, "unit": "%"}, {"measurement": "Growth Percent", "setting": "[10]", "value": 54.92, "unit": "%"}, {"measurement": "Growth Percent", "setting": "[11]", "value": 57.26, "unit": "%"}, {"measurement": "Growth Percent", "setting": "[12]", "value": 21.68, "unit": "%"}, {"measurement": "Growth Percent", "setting": "[13]", "value": 52.54, "unit": "%"}, {"measurement": "Growth Percent", "setting": "[14]", "value": 26.78, "unit": "%"}, {"measurement": "Growth Percent", "setting": "[15]", "value": 7.88, "unit": "%"}, {"measurement": "Growth Percent", "setting": "[16]", "value": 35.10, "unit": "%"}, {"measurement": "Growth Percent", "setting": "[17]", "value": "−17.85", "unit": "%"}, {"measurement": "Growth Percent", "setting": "[18]", "value": 21.79, "unit": "%"}]}]}
